Experimental data published in patent publication US20240325517A1, “COMPOSITIONS AND METHODS TARGETING FILAMENTOUS BACTERIOPHAGE” (THE UNIVERSITY OF MONTANA, priority 2020, published 2024).
Read-outs that look alike come from different tables or passages of the source. Where no end group is shown, it is not given here.

Experiments:
CoaBa [1] = test: Anti-CoaBa IgG subtypes induced with TLR4 agonist, ELISA (Example 10); assay type: in vivo, C57/BL/6 mice; parameters: unit not given here; details: booster day 14, serum 14 days post-secondary
CoaBa1 hapten = test: Adjuvant system for CoaB-CRM conjugate, total serum IgG ELISA (Example 9); assay type: in vivo, C57/BL/6 mice; details: for Mean Log10 total serum IgG titer: booster day 14, serum 14 days post-secondary
Experimental: The lead CoaB vaccines consist of a peptide hapten conjugated to CRM197. To determine whether TLR7 and TLR4 adjuvants would provide a beneficial effect on antibody titres or provide a dose sparing effect, female C57/BL/6 mice aged 6-8 weeks old (10 per group) were vaccinated intramuscularly with 1 μg of CoaBa-CRM conjugate in combination with indicated dose of (Adjuvant B), a TLR 7/8 adjuvant, and or (Adjuvant A) a TLR4 adjuvant. A booster with respective dose of adjuvant combination with […] of CoaBa-CRM conjugate was administered 14 days post primary. ELISA data is from serum collected 14 days post-secondary vaccination boost.

CoaBa [2] = test: Anti-CoaBa IgG subtypes induced with TLR4 agonist, ELISA (Example 10); assay type: in vivo, C57/BL/6 mice; parameters: Mean total IgG / Mean IgG1 / Mean IgG2b: unit not given here; details: for Mean IgG1 / Mean IgG2b / Mean total IgG: booster day 14, serum 14 days post-secondary
Experimental: Female C57/BL/6 mice aged 6-8 weeks old (5 per group) were vaccinated intramuscularly with […] of CoaBa-CRM conjugate in combination with indicated dose of TLR4 agonist Adjuvant A. A booster with respective dose of adjuvant combination with 1 μg of CoaBa-CRM conjugate was administered 14 days post primary. ELISA data are from serum collected 14 days postsecondary vaccination boost. (A) Total IgG, (B) IgG1, (C) IgG2a isotypes are shown.

CoaBa1 = test: Total IgG ELISA, plate coated with CoaBa1 (Example 11); assay type: in vivo, C57/BL/6 mice; details: for Total IgG ELISA plate coated with CoaBa1: 1 μg conjugate IM, with 1 μg Adj A where named, booster day 14, serum 14 days post-secondary; for cross-reactivity to CoaBa1 (in words): vaccination, Tables 16 and 17 cited in text
Experimental: (§1) Female C57/BL/6 mice aged 6-8 weeks old (8 per group) were vaccinated intramuscularly with 1 μg of CoaBa-CRM or […] of CoaBb-CRM conjugate in combination with […] dose of TLR 4 agonist Adjuvant A. A booster with 1 μg dose of Adjuvant A adjuvant combination with 1 μg of respective conjugate was administered 14 days post primary. ELISA data is from serum collected 14 days post-secondary vaccination boost. CoaBa1 within-clade cross reactive immunity against coaBa2 was determined. (Tables 15 and 16). Clade A CoaBa cross-reactive immunity against Clade B CoaBb epitope was determined. (Table 17).

CoaBa2 = test: Total IgG ELISA, plate coated with CoaBa2 (Example 11); assay type: in vivo, C57/BL/6 mice; details: for Total IgG ELISA plate coated with CoaBa2: 1 μg conjugate IM, with 1 μg Adj A where named, booster day 14, serum 14 days post-secondary
Experimental: as §1

CoaBb1 = test: Total IgG ELISA, plate coated with CoaBb1 (Example 11); assay type: in vivo, C57/BL/6 mice; details: 1 μg conjugate IM, with 1 μg Adj A where named; booster day 14; serum 14 days post-secondary
Experimental: as §1

[3] = cited from earlier work
sheep red blood cells = details: cited from earlier work
[4] = target: CoaBa (Pseudomonas aeruginosa filamentous (Pf) bacteriophage); test: anti-CoaBa serum ELISA; 14 days post boost; C57BL/6
[5] = 0.001 μg Adj A with 1 μg CoaBa-CRM conjugate IM
[6] = 0.01 μg Adj A with 1 μg CoaBa-CRM conjugate IM
[7] = 0.1 μg Adj A with 1 μg CoaBa-CRM conjugate IM
[8] = 10 μg Adj A with 1 μg CoaBa-CRM conjugate IM
[9] = 1 μg Adj A with 1 μg CoaBa-CRM conjugate IM
[10] = 0.0001 μg Adj A with 1 μg CoaBa-CRM conjugate IM

Question: With `CCCCCCCCCCC[C@H](CC(=O)NCCO[C@@H]1OC(CO)[C@@H](OS(=O)(=O)O)[C@H](NC(=O)C[C@@H](CCCCCCCCCCC)OC(=O)CCCCCCCCC)C1NC(=O)C[C@@H](CCCCCCCCCCC)OC(=O)CCCCCCCCC)OC(=O)CCCCCCCCC` (stereo partly shown) [Adjuvant A] as the compound, how does the “Mean IgG2b” value (CoaBa [1]; [5]) read?
Answer: 1.22

Question: What about the “Mean IgG2b” value (CoaBa [1]; [6]) of the same compound?
Answer: 2.45

Question: And the “Mean IgG2b” value (CoaBa [1]; [7])?
Answer: 3.90

Question: And the “Mean IgG2b” value (CoaBa [1]; [8])?
Answer: 3.31

Question: And the “Mean Log10 total serum IgG titer” value (CoaBa1 hapten; [6])?
Answer: 3.74 Log10

Question: And the “Mean Log10 total serum IgG titer” value (CoaBa1 hapten; [7])?
Answer: 4.55 Log10

Question: And the “Mean Log10 total serum IgG titer” value (CoaBa1 hapten; [9])?
Answer: 5.12 Log10

Question: And the “antibody titers against the CoaBa1 hapten (in words)” value (CoaBa1 hapten; vaccine dose experiments with 1 μg CoaBa-CRM conjugate)?
Answer: produced the highest antibody titers against the CoaBa1 hapten

Question: And the “Mean IgG1” value (CoaBa [2]; [10])?
Answer: 0.95

Question: And the “Mean IgG2b” value (CoaBa [2]; [10])?
Answer: 1.02

Question: What about the “Mean total IgG” value (CoaBa [2]; [10]) of the same compound?
Answer: 1.27

Question: And the “Mean IgG1” value (CoaBa [2]; [5])?
Answer: 1.86

Question: And the “Mean total IgG” value (CoaBa [2]; [5])?
Answer: 2.38

Question: And the “Mean IgG1” value (CoaBa [2]; [6])?
Answer: 1.99

Question: And the “Mean total IgG” value (CoaBa [2]; [6])?
Answer: 3.15

Question: What about the “Mean IgG1” value (CoaBa [2]; [7]) of the same compound?
Answer: 2.45

Question: And the “Mean total IgG” value (CoaBa [2]; [7])?
Answer: 4.00

Question: And the “Mean IgG1” value (CoaBa [2]; [9])?
Answer: 3.60

Question: And the “Mean IgG2b” value (CoaBa [2]; [9])?
Answer: 4.31

Question: What about the “Mean total IgG” value (CoaBa [2]; [9]) of the same compound?
Answer: 4.19

Question: What about the “Mean IgG1” value (CoaBa [2]; [8]) of the same compound?
Answer: 2.88

Question: What about the “Mean total IgG” value (CoaBa [2]; [8]) of the same compound?
Answer: 4.25

Question: And the “IgG subtype analysis (in words)” value (CoaBa [2]; adjuvanting CoaBa with Adjuvant A)?
Answer: elicited both IgG1 and IgG2b subclasses

Question: Which “Total IgG ELISA plate coated with CoaBa1” value (CoaBa1) does the source give for “CoaBa1: CoaBa1 hapten-CRM197 conjugate vaccine (GVIDTSAVESAITDGQGD; not fully specified)” here?
Answer: 0.50

Question: What about the “Total IgG ELISA plate coated with CoaBa2” value (CoaBa2) of the same compound?
Answer: 0.5

Question: And the “cross-reactivity to CoaBa2-CRM197 (in words)” value (CoaBa2; vaccination, Table 15 cited in text)?
Answer: produced cross-reactivity to CoaBa2-CRM197

Question: And the “Total IgG ELISA plate coated with CoaBb1” value (CoaBb1)?
Answer: 0.5

Question: What does the source list for “CoaBa2: CoaBa2 hapten-CRM197 conjugate vaccine (GSVIDTSAVEAAITEGKGD; not fully specified)”?
Answer: Total IgG ELISA plate coated with CoaBa1 (CoaBa1): 0.50; cross-reactivity to CoaBa1 (in words) (CoaBa1): produced cross-reactivity to CoaBa1-CRM197; Total IgG ELISA plate coated with CoaBa2 (CoaBa2): 0.5

Question: With “CoaBb1: CoaBb-CRM conjugate vaccine, subclade b1 (ADSLIDETTKEVLTQAGTDG; also: conjugated to CRM carrier, site not given here)” as the compound, how does the “cross-reactivity to CoaBa1 (in words)” value (CoaBa1) read?
Answer: did not produce cross-reactive immunity to clade A subtypes CoaBa1

Question: And the “Total IgG ELISA plate coated with CoaBb1” value (CoaBb1)?
Answer: 0.5

Question: For QS-17, which critical micellar concentration ([3]; in phosphate buffered saline) is on record?
Answer: 0.03 % (w/v)

Question: And the critical micellar concentration ([3]; in water)?
Answer: 0.06 % (w/v)

Question: What about the “concentrations causing hemolysis of sheep red blood cells” value (sheep red blood cells) of the same compound?
Answer: ≥ 25000 ng/mL

Question: With QS-18 as the compound, how does the critical micellar concentration ([3]; in phosphate buffered saline) read?
Answer: 0.02 % (w/v)

Question: What about the critical micellar concentration ([3]; in water) of the same compound?
Answer: 0.04 % (w/v)

Question: Which critical micellar concentration ([3]; in phosphate buffered saline) does the source give for QS-21 here?
Answer: ~0.02 % (w/v)

Question: And the critical micellar concentration ([3]; in water)?
Answer: about 0.03 % (w/v)

Question: And the “concentrations causing hemolysis of sheep red blood cells” value (sheep red blood cells)?
Answer: ≥ 25000 ng/mL

Question: For serum of naïve (unvaccinated) mice, which Mean IgG1 [4] is on record?
Answer: 0.5

Question: What about the Mean IgG2b [4] of the same compound?
Answer: 0.5

Question: What about the Mean total IgG [4] of the same compound?
Answer: 0.5
